Drawing on PubChem BioAssay (NCI), this text covers TGI for 15 compounds.

Some test systems named below: NCI-H226 lung; MCF7 breast; HT29 colon; A498 renal; MDA-MB-231 breast; SK-MEL-5 melanoma; OVCAR-3 ovarian; MDA-N; MALME-3M melanoma; UACC-62 melanoma.
What all share (experiment): NCI anticancer screen, dose series, 48 h

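Method: 48-hour compound exposure of cells in 96-well plates, five concentrations, linear interpolation of endpoints. TGI: total growth inhibition.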 Where only a bound is given, the exact number is not on record here.

Consider `CC(C)(C)OC(=O)N1C/C=C\C(=O)C2(OCCO2)c2ccccc21`, for which the TGI with NCI-H226 lung is 38.9 µM; in the assay on MCF7 breast, 96.2 µM; in the assay on HT29 colon, 42 µM; in the assay on A498 renal, more than 100 µM; in the assay with MDA-MB-231 breast, 40.8 µM; in the assay with SK-MEL-5 melanoma, 31.7 µM. The TGI in the assay on OVCAR-3 ovarian was 29.6 µM; with MDA-N, 48.3 µM; in the assay on MALME-3M melanoma it was 48.1 µM.

Turning to `C1=C[C@]2(CCC13OCCO3)COc1ccccc12`, the TGI with NCI-H226 lung is 81.2 µM; in the assay with MCF7 breast it was more than 100 µM; with HT29 colon, 80.4 µM; in the assay with A498 renal, more than 100 µM; in the assay on MDA-MB-231 breast, more than 100 µM; with UACC-62 melanoma, more than 100 µM. The TGI in the assay with SK-MEL-5 melanoma, in the assay on OVCAR-3 ovarian and in the assay with MDA-N was more than 100 µM in each case.

`O=C1CC(Cl)c2c(Cl)sc(Cl)c21` (stereo unspecified): the TGI with NCI-H226 lung was 28.8 µM; in the assay on MCF7 breast it was 2.11 µM; with HT29 colon it was 5.93 µM; with A498 renal, 27.3 µM; in the assay with MDA-MB-231 breast it was more than 25.7 µM; with UACC-62 melanoma, 4.66 µM. For the same compound, the TGI amounted to 26.2 µM in the assay on SK-MEL-5 melanoma, 5.94 µM in the assay on MDA-N and 6.63 µM with MALME-3M melanoma.

As to `O=C(c1ccccc1)n1[nH]c(=O)n(-c2ccc(Cl)cc2)c1=O`, the TGI with NCI-H226 lung, in the assay on MCF7 breast, in the assay with HT29 colon, with MDA-MB-231 breast, with UACC-62 melanoma and in the assay with SK-MEL-5 melanoma was more than 100 µM each time. For the same compound, the TGI with OVCAR-3 ovarian, in the assay with MDA-N and with MALME-3M melanoma was more than 100 µM each time.

With `COc1cc(C2C3=C(N=C4SC(C(C)=O)=C(C)N42)c2ccccc2CC3)cc(OC)c1OC` (stereo unspecified), the TGI in the assay with NCI-H226 lung, in the assay on MCF7 breast, in the assay on HT29 colon, with A498 renal, in the assay on MDA-MB-231 breast and with UACC-62 melanoma was more than 100 µM throughout. Besides, the TGI in the assay with SK-MEL-5 melanoma, in the assay on OVCAR-3 ovarian and in the assay with MDA-N was more than 100 µM throughout.

In the case of `O=c1c(S(=O)(=O)Oc2ccccc2)coc2cc(F)ccc12`, the TGI in the assay on NCI-H226 lung was 73.6 µM; in the assay on MCF7 breast, more than 100 µM; with HT29 colon it was more than 100 µM; in the assay with MDA-MB-231 breast, more than 100 µM; with UACC-62 melanoma it was more than 100 µM; in the assay on SK-MEL-5 melanoma, more than 100 µM. For the same compound, the TGI in the assay on OVCAR-3 ovarian, in the assay with MDA-N and with MALME-3M melanoma was more than 100 µM in each case.

Consider `OCCNc1nc2c(N3CCCC3)nc(N3CCNCC3)nc2nc1NCc1ccccc1`, for which the TGI in the assay on NCI-H226 lung was 35.2 µM; with MCF7 breast it was 28.3 µM; with HT29 colon it was 21.7 µM; with MDA-MB-231 breast, 29.4 µM; with UACC-62 melanoma, 31.3 µM; in the assay on SK-MEL-5 melanoma, 26.1 µM. The TGI in the assay with OVCAR-3 ovarian was found to be 18.6 µM; in the assay on MDA-N, 24.7 µM; with MALME-3M melanoma it was 35.9 µM.

As for `O=C(NC(CO)CO)c1ccc2cc(C(=O)N3CC(CCl)c4ccc([N+](=O)[O-])cc43)[nH]c2c1` (stereo unspecified), the TGI in the assay with NCI-H226 lung, in the assay on MCF7 breast, in the assay on HT29 colon, with MDA-MB-231 breast, in the assay with UACC-62 melanoma and in the assay with SK-MEL-5 melanoma was more than 100 µM each time. Besides, the TGI in the assay with OVCAR-3 ovarian, with MDA-N and in the assay with MALME-3M melanoma was more than 100 µM throughout.

As for `CCOC(=O)O/N=C1/C(c2c(O)[nH]c3ccccc23)=Nc2ccccc21`, the TGI in the assay on MCF7 breast stood at 18.4 µM; with HT29 colon, 46.7 µM; in the assay with A498 renal it was 16.8 µM; in the assay on MDA-MB-231 breast, 63 µM; in the assay on UACC-62 melanoma, 23 µM; in the assay with SK-MEL-5 melanoma, 6.99 µM. Further, the TGI with OVCAR-3 ovarian was 8 µM; in the assay on MDA-N it was 19.3 µM; with MALME-3M melanoma, 22.1 µM.

In the case of `CCOC(=O)/C=C1/Nc2cc(F)c(F)cc2NC1=O`, the TGI in the assay on NCI-H226 lung, in the assay on MCF7 breast, in the assay with HT29 colon, in the assay on MDA-MB-231 breast, in the assay on UACC-62 melanoma and with SK-MEL-5 melanoma was more than 100 µM in each case. Moreover, the TGI in the assay on OVCAR-3 ovarian, in the assay on MDA-N and with MALME-3M melanoma was more than 100 µM in each case.

As to `CC1=CC(=O)/C(=C/N2CCNC2=S)C(=O)O1`, the TGI in the assay on NCI-H226 lung, in the assay with MCF7 breast, in the assay on HT29 colon, with A498 renal, with MDA-MB-231 breast and with UACC-62 melanoma was more than 100 µM in each case. The TGI in the assay on SK-MEL-5 melanoma and with MDA-N was more than 100 µM in each case.

`S=C1CSc2c(cnc3ccccc23)N1`: the TGI in the assay on NCI-H226 lung, in the assay on MCF7 breast, in the assay with HT29 colon, with MDA-MB-231 breast, with UACC-62 melanoma and with SK-MEL-5 melanoma was more than 100 µM in each case. Also, the TGI in the assay with OVCAR-3 ovarian, in the assay on MDA-N and in the assay on MALME-3M melanoma was more than 100 µM throughout.

For `O=C1C=C(NCCc2cc(Br)c(O)c(Br)c2)C(=O)c2[nH]cnc21`, the TGI is more than 100 µM in the assay on NCI-H226 lung; 48.9 µM with MCF7 breast; 80.8 µM in the assay with HT29 colon; 67.9 µM in the assay with MDA-MB-231 breast; 40 µM with UACC-62 melanoma; 29 µM in the assay on SK-MEL-5 melanoma. Moreover, the results for the TGI in the assay on OVCAR-3 ovarian, in the assay on MDA-N and in the assay on MALME-3M melanoma were more than 100 µM, 33.6 µM and 30 µM, respectively.

On to `CC(CN(C)C)C(=O)/C=C/c1ccc(Cl)c(Cl)c1` (stereo unspecified), for which the TGI in the assay with NCI-H226 lung was determined as 5.57 µM; in the assay on MCF7 breast, 0.929 µM; in the assay on A498 renal it was 3.69 µM; in the assay on MDA-MB-231 breast, 3.29 µM; with UACC-62 melanoma, 3.69 µM; in the assay on SK-MEL-5 melanoma, 2.99 µM. Further, the TGI in the assay on OVCAR-3 ovarian amounted to 3.87 µM; in the assay on MDA-N, 6.03 µM.

Turning to `Clc1cccc(N=C/C=C/Nc2cccc(Cl)c2)c1`, the TGI in the assay on MCF7 breast amounted to 43.6 µM; with HT29 colon, 34 µM; in the assay on A498 renal it was 49.7 µM; with MDA-MB-231 breast, 29.4 µM; with SK-MEL-5 melanoma, 44 µM; in the assay on OVCAR-3 ovarian, 45.4 µM. Further, in the assay with MDA-N, the TGI was found to be 26.8 µM.
